Key:
[1] = target: T1, Sirt2_56–356 (Homo sapiens, UniProt Q8IXJ6); assay: Fluorescence polarization assay (FPA), displacement of SirReal-TAMRA probe; format: binding; conditions: for FP-Assay Inhibition (%) at 125 µM / inhibition at 125 µM: 125 µM compound; for FP-Assay Inhibition (%) at 500 µM / inhibition at 500 µM: 500 µM compound; for FP-Assay Inhibition (%) at 2000 µM / inhibition at 2000 µM: 2000 µM compound; for IC50: 200 nM Sirt2, 40 nM SirReal-TAMRA, 5% DMSO; for inhibition at 125 µM: read-out: FP-Assay Inhibition (%) at 125 µM; for inhibition at 500 µM: read-out: FP-Assay Inhibition (%) at 500 µM; for inhibition at 2000 µM: read-out: FP-Assay Inhibition (%) at 2000 µM
T1 construct: human strep-tagged Sirt2_56–356 was expressed and purified; strep-tag; made in house
T1 sequence (Q8IXJ6 56-356): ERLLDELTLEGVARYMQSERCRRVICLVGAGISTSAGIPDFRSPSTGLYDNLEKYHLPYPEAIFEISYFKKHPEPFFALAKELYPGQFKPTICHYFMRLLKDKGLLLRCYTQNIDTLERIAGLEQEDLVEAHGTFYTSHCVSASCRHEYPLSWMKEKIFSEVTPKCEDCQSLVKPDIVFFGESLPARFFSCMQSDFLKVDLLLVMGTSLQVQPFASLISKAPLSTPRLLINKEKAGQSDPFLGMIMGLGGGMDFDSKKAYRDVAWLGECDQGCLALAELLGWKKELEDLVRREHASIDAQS
Procedure: Blank controls contained 19 μL of assay buffer and 1 μL DMSO. Negative controls (P neg) used 1 μL Mz242 (20 μM final concentration), while positive controls (Ppos) replaced the inhibitor with 1 μL DMSO. […] Fluorescence intensities were measured with an EnVision plate reader (PerkinElmer, optical module – BODIPY TMR FP, excitation filter – FP 531 nm, emission filter 1 – FP p-pol 595 nm, emission filter 2 – FP s-pol 595 nm). Inhibition was calculated using the equation reported below (P I, P neg, and P pos are FP values of samples, […], respectively). I=100×(1−(PI−Pneg/Ppos−Pneg))%

[2] = target: T1, Sirt2_56–356; assay: Fluorescence thermal shift assay (DSF); format: binding; conditions: 6.0 μM Sirt2; for FTS-Assay Thermal shift at 1000 µM / ΔTm at 1000 µM: 1000 µM compound; for ΔTm at 1000 µM: read-out: FTS-Assay Thermal shift at 1000 µM
Procedure: Fluorescence thermal shift assays were performed in white 96-well plates (Hard-Shell PCR Plates, BioRad, USA) with a total volume of 20 μL and a final DMSO concentration of 5% (v/v), following a published protocol. ,
Melting temperatures were determined using GraphPad Prism, following a published procedure.

[3] = test system: Sirt2; conditions: published Sirt2 inhibitors; no assay or reference printed at the place; cited from earlier work
[4] = Precipitation observed in the FP assay IC50 determination; format: physicochemical; conditions: FP assay buffer, 5% DMSO
Description: Figure S3: (A) Superimposition of Sirt2 apo (salmon, PDB 9FDR) with Sirt2-Mz242 (Sirt2 = yellow-orange, Mz242 = yellow, PDB 8OWZ).4 All amino acids that are involved in the formation of the selectivity pocket align very well. However, Phe96 and Arg97 from the cofactor binding loop show a different orientation, resulting from the presence or absence of Mz242. (B) Superimposition of Sirt2-KT9 (Sirt2 = wheat, KT9 = firebrick, PDB 9FDX) with NAD+ (gray) from PDB 4RMG. In the presented KT9 orientation, the close distance of the amide C=O of KT9 and the ribose moiety of NAD+ (highlighted as black circle) would result in steric clashes that prevent simultaneous binding.
Figure S4: IC50 curves of compounds 1-3 in a previously reported Sirt2 binding assay based on fluorescence polarization.5 At concentrations exceeding 1000 µM, 1 started to precipitate, thus limiting the maximum inhibition to 70%. […]

| SMILES | FP-Assay Inhibition (%) at 125 µM [1] [%] | FP-Assay Inhibition (%) at 500 µM [1] [%] | FP-Assay Inhibition (%) at 2000 µM [1] [%] | FTS-Assay Thermal shift at 1000 µM [2] [°C] | FTS-Assay Thermal shift at 2000 µM ([2]; 2000 µM compound) [°C] | further results |
| --- | --- | --- | --- | --- | --- | --- |
| CC1(C)CC(=O)c2c(SCCO)sc(C#N)c2C1 [No. 19] | 8.2 ± 4.9 | 40.9 ± 5.6 | 91.5 ± 1.7 | – | – | – |
| CC1Sc2ccccc2NC(=O)C1C (stereo not shown) [No. 6] | 20.2 ± 2.9 | 59.9 ± 7.9 | 101.0 ± 4.7 | 1.5 | – | – |
| COCCn1cc(COc2cccc(Cc3cnc(NC(=O)CSc4nc(C)cc(C)n4)s3)c2)nn1 [Mz242] | – | – | – | – | – | IC50 [3]: 0.12 µM |
| CNCc1ccc(N2CCOCC2)s1 [No. 13] | 19.9 ± 3.1 | 49.3 ± 4.1 | 95.1 ± 3.5 | – | – | – |
| CC(=O)c1c(O)cccc1OCCC(C)C [No. 22] | 57.6 ± 7.3 | 74.2 ± 4.2 | 56.5 ± 2.8 | 1.9 | 1.6 | – |
| CCOC(=O)Cc1cccc(Cl)c1 [No. 17] | 24.7 ± 4.0 | 63.8 ± 2.4 | 99.7 ± 4.6 | 0.9 | 0.9 | – |
| O=C(NCc1ccccn1)c1cccc(Cl)c1 [compound 3] | – | – | – | – | – | IC50 [1]: 565 ± 95 µM; inhibition at 125 µM [1]: 15.1 ± 7.7%; inhibition at 500 µM [1]: 46.9 ± 9.3%; inhibition at 2000 µM [1]: 94.8 ± 3.4%; ΔTm at 1000 µM [2]: 0.5 °C |
| COC(=O)c1sccc1-n1cccc1 [No. 7] | 11.5 ± 5.5 | 46.9 ± 4.3 | 76.2 ± 1.8 | 0.8 | 0.5 | – |
| CCOC(=O)Cc1ccc(OC)cc1 [No. 16] | 23.1 ± 3.9 | 50.5 ± 5.4 | – | 0.5 | 0.4 | – |
| NC(=S)c1ccc(OCC(F)(F)F)nc1 [compound 1] | – | – | – | – | – | IC50 [1]: 286 ± 10 µM; inhibition at 125 µM [1]: 26.5 ± 5.8%; inhibition at 500 µM [1]: 55.4 ± 4.3%; inhibition at 2000 µM [1]: 74.2 ± 3.1%; concentration above which compound started to precipitate [4]: exceeding 1000 µM; ΔTm at 1000 µM [2]: 0.3 °C; ΔTm at 2000 µM ([2]; 2000 µM compound, read-out: FTS-Assay Thermal shift at 2000 µM): 0.6 °C |
| Nc1nc(-c2ccc(F)c(F)c2)cs1 [No. 20] | -0.9 ± 6.3 | 38.8 ± 4.6 | 91.3 ± 3.2 | – | 0.0 | – |
| Cc1ccc(=O)n(Cc2ccc(Cl)cc2)n1 [No. 18] | 11.3 ± 3.2 | 41.9 ± 7.0 | 90.8 ± 2.8 | 1.3 | 0.1 | – |
| c1ccc2c(CN3CCOCC3)csc2c1 [No. 14] | 24.3 ± 3.5 | 42.5 ± 2.9 | 91.9 ± 13.9 | 1.3 | 0.7 | – |
| Nc1ccccc1-c1cccs1 [No. 12] | 33.2 ± 10.3 | 66.4 ± 3.2 | 104.2 ± 3.2 | – | 0.0 | – |
| C#Cc1ccc(-c2cnco2)cc1 [No. 8] | 19.1 ± 4.6 | 61.2 ± 3.3 | – | 0.9 | 0.0 | – |
| CCOC(=O)c1cccc(-c2nccs2)c1 [No. 21] | 41.8 ± 5.9 | 91.4 ± 2.5 | 97.0 ± 6.2 | 0.9 | – | – |
| Clc1ccc2ncccc2c1 [No. 15] | 6.3 ± 7.4 | 36.2 ± 6.5 | 87.3 ± 6.8 | 0.7 | 0.2 | – |
| CC(=O)Nc1ccc2c(c1)CCC2 [No. 4] | 32.8 ± 4.3 | 61.1 ± 6.5 | 78.5 ± 7.5 | 1.1 | 0.1 | – |
| CN(C(=O)c1cccs1)C1CC2CCC1C2 (stereo not shown) [No. 5] | -7.4 ± 8.3 | 10.3 ± 6.0 | 43.8 ± 10.1 | 0.5 | 0.7 | – |
| N#CCOc1cc(Cl)cc(Cl)c1 [No. 10] | 19.3 ± 10.5 | 53.9 ± 8.2 | 90.3 ± 14.7 | 0.7 | – | – |

Source: publication PMC12169609, “Efficient Crystallization of Apo Sirt2 for Small-Molecule Soaking and Structural Analysis of Ligand Interactions” (Journal of Medicinal Chemistry, 2025)
